The test has as its target T1, AKT1 (Homo sapiens, UniProt P31749).
T1 construct: Insect cells expressing His-tagged AKT1 (aa 136-480) were lysed; His; made in house; host or cells: insect cells
In words: AKT1 kinase inhibition assay (substrate phosphorylation, SPA). Format: biochemical. The note with it: catalytic domain of AKT1; 10 nM activated AKT enzyme, 4 uM ATP, 8 uM peptide, 40 minutes at room temperature. Here is the method:
Isolation and Purification of His-tagged AKT1 (aa 136-480)
Insect cells expressing His-tagged AKT1 (aa 136-480) were lysed in 25 mM HEPES, 100 mM NaCl, 20 mM imidazole; pH 7.5 using a polytron (5 mLs lysis buffer/g cells). Cell debris was removed by centrifuging at 28,000×g for 30 minutes. The supernatant was filtered through a 4.5-micron filter then loaded onto a nickel-chelating column pre-equilibrated with lysis buffer. The column was washed with 5 column volumes (CV) of lysis buffer then with 5 CV of 20% buffer B, where buffer B is 25 mM HEPES, 100 mM NaCl, 300 mM imidazole; pH 7.5. His-tagged AKT1 (aa 136-480) was eluted with a 20-100% linear gradient of buffer B over 10 CV. […]
Compounds of the present invention are tested for AKT 1, 2, and 3 protein serine kinase inhibitory activity in substrate phosphorylation assays. […] Substrate phosphorylation is detected by the following procedure:
Assays are performed in 384well U-bottom white plates. […] The reaction is stopped by the addition of 50 ul SPA bead mix (Dulbecco's PBS without Mg^2+ and Ca^2+, 0.1% Triton X-100, 5 mM EDTA, 50 uM ATP, 2.5 mg/ml Streptavidin-coated SPA beads.) The plate is sealed, the beads are allowed to settle overnight, and then the plate is counted in a Packard Topcount Microplate Scintillation Counter (Packard Instrument Co., Meriden, Conn.). […]

Our source for the IC50 values is patent publication US20070185152A1, “Inhibitors of akt activity” (Smithkline Beecham Corporation, priority 2004, published 2007).

In general, IC50 refers to the concentration needed to halve the response being measured. A low value points to higher potency.

T1 sequence (P31749 136-480): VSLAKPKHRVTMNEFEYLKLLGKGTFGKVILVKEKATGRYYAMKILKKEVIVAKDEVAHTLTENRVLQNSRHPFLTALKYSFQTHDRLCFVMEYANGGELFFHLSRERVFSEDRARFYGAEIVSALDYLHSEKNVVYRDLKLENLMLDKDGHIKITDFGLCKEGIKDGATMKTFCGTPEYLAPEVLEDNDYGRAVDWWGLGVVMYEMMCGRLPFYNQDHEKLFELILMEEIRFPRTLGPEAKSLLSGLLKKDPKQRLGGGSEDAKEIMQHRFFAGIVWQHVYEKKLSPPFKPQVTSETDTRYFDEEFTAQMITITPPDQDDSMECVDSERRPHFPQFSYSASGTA

In turn, `Cc1n[nH]c2ccc(-c3cc(OC[C@@H](N)Cc4ccccc4)cnc3-c3ccccc3)cc12` [Example 1, (S)-1-Benzyl-2-[5-(3-methyl-1H-indazol-5-yl)-6-phenyl-pyridin-3-yloxy]-ethylamine] displayed an IC50 of 182 nM. This counts as sub-micromolar.
